These results are taken from US20240358842A1, “PROTEIN STABILIZING COMPOUNDS CONTAINING USP7 LIGANDS” (Stablix, Inc., priority 2021, published 2024).

Like-named read-outs stand apart in the source and are kept apart here.

In one assay the target is USP7 (Homo sapiens, UniProt Q93009). As to the kind of experiment: Ub-Rho cleavage assay. It counts as biochemical. Conditions: Ub-Rho substrate, recombinant USP7; read-out: Ub (Rho) USP7.1 (IC50). The method, then: All fluorescence measurements were performed on a Molecular Devices FlexStation3 with excitation at 480 nm and emission 540 nm, PMT Gain: Medium, Flash Number: 10. […] Assay buffer for all measurements was 50 mM HEPES, 100 mM NaCl, 0.5 mM EDTA, 1 mM TCEP, 0.1 mg/ml BSA, 0.01% Tween-20, pH 7.8. […] Serial dilutions were made with a Mosquito HTS (SPT Labtech) nanoliter liquid handler. 200 nL of each compound in duplicate or DMSO control were transferred to the assay plate. The first two columns served as positive controls. 9.8 μl per well of USP7 working solution was added to the assay plate. Compound+Protein was incubated for 25 min at 25° C. 10 uL of Ub-Rho substrate was added per well and incubated for an additional 15 min at 25° C. Fluorescence was then measured. Percent response relative to DMSO controls was calculated in GraphPad or Scinamic, and the data was fitted to a non-linear regression to determine IC50 values.
USP7, sequence (Q93009 whole entry): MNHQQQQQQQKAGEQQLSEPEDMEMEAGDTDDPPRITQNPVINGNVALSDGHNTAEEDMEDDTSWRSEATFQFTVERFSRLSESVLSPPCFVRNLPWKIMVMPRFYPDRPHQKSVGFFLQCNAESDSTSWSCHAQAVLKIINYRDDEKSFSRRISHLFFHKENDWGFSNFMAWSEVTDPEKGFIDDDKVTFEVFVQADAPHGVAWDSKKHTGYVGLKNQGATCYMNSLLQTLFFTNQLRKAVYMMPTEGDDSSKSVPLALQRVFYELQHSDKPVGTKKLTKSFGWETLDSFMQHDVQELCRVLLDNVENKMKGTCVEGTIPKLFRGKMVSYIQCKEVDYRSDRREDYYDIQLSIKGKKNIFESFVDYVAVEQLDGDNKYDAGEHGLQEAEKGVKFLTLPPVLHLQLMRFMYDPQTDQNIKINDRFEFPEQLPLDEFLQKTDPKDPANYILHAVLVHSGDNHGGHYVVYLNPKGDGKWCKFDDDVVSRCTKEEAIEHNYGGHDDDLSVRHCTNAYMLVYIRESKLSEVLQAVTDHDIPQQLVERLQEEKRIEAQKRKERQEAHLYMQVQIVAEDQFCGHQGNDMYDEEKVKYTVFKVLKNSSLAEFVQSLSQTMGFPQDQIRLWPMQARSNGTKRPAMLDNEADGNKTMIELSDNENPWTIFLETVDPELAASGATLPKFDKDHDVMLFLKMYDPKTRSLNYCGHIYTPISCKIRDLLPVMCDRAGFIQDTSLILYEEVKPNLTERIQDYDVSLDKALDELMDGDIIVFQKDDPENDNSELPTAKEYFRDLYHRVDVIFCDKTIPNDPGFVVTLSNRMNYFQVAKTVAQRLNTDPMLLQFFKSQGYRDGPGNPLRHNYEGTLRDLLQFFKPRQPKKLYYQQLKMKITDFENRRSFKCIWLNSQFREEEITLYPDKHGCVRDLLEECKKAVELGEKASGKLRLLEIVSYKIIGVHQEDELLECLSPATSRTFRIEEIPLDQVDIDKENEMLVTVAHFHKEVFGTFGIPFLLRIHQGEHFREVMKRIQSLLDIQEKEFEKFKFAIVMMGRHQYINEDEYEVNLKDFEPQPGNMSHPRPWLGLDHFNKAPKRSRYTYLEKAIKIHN

A further assay deals with T1, USP7 CD + UBL 1-5 (Homo sapiens, UniProt Q93009).
T1 construct: USP7 CD +
T1 sequence (Q93009 208-1102 limits assumed): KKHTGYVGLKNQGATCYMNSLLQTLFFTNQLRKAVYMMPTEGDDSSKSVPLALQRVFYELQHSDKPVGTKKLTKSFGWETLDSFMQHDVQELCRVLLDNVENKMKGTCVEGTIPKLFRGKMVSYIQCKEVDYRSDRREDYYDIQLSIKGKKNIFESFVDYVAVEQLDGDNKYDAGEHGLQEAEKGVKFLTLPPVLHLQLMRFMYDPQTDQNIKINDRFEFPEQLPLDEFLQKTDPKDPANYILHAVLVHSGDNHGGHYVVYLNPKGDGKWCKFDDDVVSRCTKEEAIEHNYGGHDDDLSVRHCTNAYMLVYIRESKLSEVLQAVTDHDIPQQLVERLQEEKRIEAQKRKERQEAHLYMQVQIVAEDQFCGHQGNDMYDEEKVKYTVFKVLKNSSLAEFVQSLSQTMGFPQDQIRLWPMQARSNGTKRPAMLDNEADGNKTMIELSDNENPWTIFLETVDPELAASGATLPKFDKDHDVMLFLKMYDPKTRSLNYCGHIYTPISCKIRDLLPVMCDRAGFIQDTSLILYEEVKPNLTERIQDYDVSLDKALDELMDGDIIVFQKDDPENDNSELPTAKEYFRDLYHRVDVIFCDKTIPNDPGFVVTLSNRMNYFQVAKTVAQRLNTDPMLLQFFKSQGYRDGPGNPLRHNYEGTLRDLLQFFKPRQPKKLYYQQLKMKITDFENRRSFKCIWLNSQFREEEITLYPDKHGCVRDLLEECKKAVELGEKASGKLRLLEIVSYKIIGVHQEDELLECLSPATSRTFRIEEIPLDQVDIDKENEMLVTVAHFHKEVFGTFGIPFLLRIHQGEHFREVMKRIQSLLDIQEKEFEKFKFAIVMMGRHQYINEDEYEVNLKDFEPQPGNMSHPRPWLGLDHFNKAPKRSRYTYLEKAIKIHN
Kind of assay: Surface plasmon resonance assay (SPR). It counts as binding. The method, then:
The surface plasmon resonance experiments were performed using a Cytiva (formerly GE Healthcare) Biacore 8K equipped with a Series S Sensor Chip SA. The ligands were immobilized via a biotin-modified biotin acceptor peptide. USP7 Ligands were diluted in running buffer (HBS-P+2% DMSO; 10 mM HEPES, pH 7.4, 150 mM NaCl, 1 mM DTT, 0.05% P20, 2% DMSO) to 100 μg/mL and injected at […] until a density between 500-10,000 RU was reached on flow-cell two of each channel, and flow cell one was left blank to serve as a reference surface. Both surfaces were washed until a stable baseline was achieved then 30 startup cycles to condition the surface. To collect kinetic and steady-state binding data, the small molecule analytes were prepared in three-fold dilution series in HBS-P+2% DMSO running buffer. Analytes were injected over both flow cells at a flow rate of […] at 25° C. The complex was allowed to associate for 60 seconds and dissociate for 300 seconds. Data were collected at 10 Hz. The data were fit to a simple 1:1 interaction model global data analysis within Cytiva Biacore Insight Evaluation Software.

Where [1] appears, read: steady-state KD, read-out: SPR USP7 CD + UBL 1-5 (KD_ss).
[2] abbreviates: kinetic KD, read-out: SPR USP7 CD + UBL 1-5 (KD_kinetic).

A word on the IC50: it is the concentration at which inhibition is half-maximal. For `NCc1cc(Nc2nc3ccc(NS(=O)(=O)c4cn5c(n4)CCC5)cc3s2)ncn1` [U100], the IC50 at USP7 is more than 100 µM. At USP7 CD + UBL 1-5 (setting [1]), the Kd was 1 to 100 µM.
The like results for `CN(C)Cc1cc(C(=O)Nc2nc3ccc(NS(=O)(=O)c4cccs4)cc3s2)nn1C` [U101] were, in that order, more than 100 µM and 1 to 100 µM.
On to `CN1CCCn2nc(C(=O)Nc3nc4ccc(NS(=O)(=O)c5cn6c(n5)CCC6)cc4s3)cc2C1` [U102], for which, on USP7, the IC50 was more than 100 µM. Also, on USP7 CD + UBL 1-5 (setting [1]), the Kd lay in the range of 1 to 100 µM.
For `CN1CCCn2nc(C(=O)Nc3nc4ccc(NS(=O)(=O)c5cccnc5)cc4s3)cc2C1` [U103], in that order: more than 100 µM and 1 to 100 µM.
The like results for `CN1CCCn2nc(C(=O)Nc3nc4ccc(NS(=O)(=O)c5ccccn5)cc4s3)cc2C1` [U104] were, in that order, more than 100 µM and 1 to 100 µM.
The like results for `Cn1nc(C(=O)Nc2nc3ccc(NS(=O)(=O)c4cccs4)cc3s2)cc1CN1CCC(CO)CC1` [U105] were, in that order, more than 100 µM and 1 to 100 µM.
Regarding `CN1CCCn2nc(C(=O)Nc3nc4ccc(NS(=O)(=O)c5cnccn5)cc4s3)cc2C1` [U106], on USP7, the IC50 was more than 100 µM. In addition, on USP7 CD + UBL 1-5 (setting [1]), the Kd was more than 100 µM.
As for `Cn1ccc(C(=O)Nc2nc3ccc(NS(=O)(=O)c4cccs4)cc3s2)n1` [U107], the IC50 on USP7 was more than 100 µM. In addition, the Kd on USP7 CD + UBL 1-5 (setting [1]) lay within 1 to 100 µM.
As for `CN1CCCn2nc(C(=O)Nc3nc4ccc(N(CCN)S(=O)(=O)c5cccs5)cc4s3)cc2C1` [U108], the IC50 at USP7 is more than 100 µM. The Kd at USP7 CD + UBL 1-5 (setting [1]) is more than 100 µM.
Regarding `CN1CCCn2nc(C(=O)Nc3nc4ccc(NS(=O)(=O)c5ccncc5)cc4s3)cc2C1` [U109], the IC50 at USP7 is more than 100 µM. Further, the Kd on USP7 CD + UBL 1-5 (setting [1]) is more than 100 µM.
For `CN1CCCn2nc(C(=O)Nc3nc4ccc(NS(=O)(=O)c5cn6ccccc6n5)cc4s3)cc2C1` [U110], the IC50 at USP7 was more than 100 µM. The Kd on USP7 CD + UBL 1-5 (setting [1]) lay in the range of 1 to 100 µM.
For `CN1CCCn2nc(C(=O)Nc3nc4ccc(N(C)S(=O)(=O)c5cccs5)cc4s3)cc2C1` [U111], in that order: more than 100 µM and more than 100 µM.
For `NC1CCn2nc(C(=O)Nc3nc4ccc(NS(=O)(=O)c5cccs5)cc4s3)cc2C1` (centres unmarked) [U112], in that order: more than 100 µM and 1 to 100 µM.
For `CN1CCCn2nc(C(=O)Nc3nc4ccc(N[S+]([O-])c5cccs5)cc4s3)cc2C1` (centres unmarked) [U113], in that order: more than 100 µM and 1 to 100 µM.
Consider `CN1CCCn2nc(C(=O)Nc3nc4ccc(NCc5c[nH]cn5)cc4s3)cc2C1` [U114], for which, on USP7, the IC50 is more than 100 µM. Also, the Kd on USP7 CD + UBL 1-5 (setting [1]) is more than 100 µM.
Regarding `CN1CCCn2nc(C(=O)Nc3nc4ccc(N(CC5CCNC5)S(=O)(=O)c5cccs5)cc4s3)cc2C1` (centres unmarked) [U115], the IC50 on USP7 was more than 100 µM. Moreover, the Kd on USP7 CD + UBL 1-5 (setting [1]) fell in the range of 1 to 100 µM.
For `CN1CCCn2nc(C(=O)Nc3nc4ccc(NS(=O)(=O)c5nnc[nH]5)cc4s3)cc2C1` [U116], in that order: more than 100 µM and 1 to 100 µM.
The like results for `CN1CC2CN(C(=O)Nc3nc4ccc(NS(=O)(=O)c5cccs5)cc4s3)CC2C1` (centres unmarked) [U117] were, in that order, more than 100 µM and 1 to 100 µM.
Regarding `O=C(Nc1nc2ccc(NS(=O)(=O)c3cccs3)cc2s1)c1ccn[nH]1` [U118], on USP7, the IC50 was more than 100 µM. The Kd at USP7 CD + UBL 1-5 (setting [1]) lay in the range of 1 to 100 µM.
For `C#CCCN1CCCn2nc(C(=O)Nc3nc4ccc(NS(=O)(=O)c5cccs5)cc4s3)cc2C1` [U119], the IC50 on USP7 is more than 100 µM. The Kd at USP7 CD + UBL 1-5 (setting [1]) lay in the range of 1 to 100 µM.
For `CN1CCCn2nc(C(=O)Nc3nc4ccc(N(C5CCNC5)S(=O)(=O)c5cccs5)cc4s3)cc2C1` (centres unmarked) [U120], in that order: more than 100 µM and 1 to 100 µM.
Regarding `CN1CCCn2nc(C(=O)Nc3nc4ccc(NS(=O)(=O)c5nn6ccccc6c5Cl)cc4s3)cc2C1` [U121], the IC50 at USP7 is more than 100 µM. Besides, the Kd at USP7 CD + UBL 1-5 (setting [1]) is 1 to 100 µM.
The like results for `CCC(=O)N1CCC(C(=O)Nc2nc3ccc(NS(=O)(=O)c4cccs4)cc3s2)C1` (centres unmarked) [U122] were, in that order, more than 100 µM and 1 to 100 µM.
For `CN1CCN(C(=O)Nc2nc3ccc(NS(=O)(=O)c4cccs4)cc3s2)CC1=O` [U123], in that order: more than 100 µM and more than 100 µM.
For `CN1CCCn2nc(C(=O)Nc3nc4ccc(NS(=O)(=O)c5cccs5)cc4s3)nc2C1` [U124], in that order: 1 to 100 µM and more than 100 µM.
`O=C(Nc1nc2ccc(NS(=O)(=O)c3cccs3)cc2s1)N1CCOCC1` [U126]: the IC50 at USP7 was more than 100 µM. For the same molecule, the Kd on USP7 CD + UBL 1-5 (setting [1]) was 1 to 100 µM.
On to `CN1CCCn2nc(C(=O)Nc3nc4ccc(S(=O)(=O)NC5CCNC5)cc4s3)cc2C1` (centres unmarked) [U127], for which the IC50 at USP7 is more than 100 µM. Moreover, on USP7 CD + UBL 1-5 (setting [1]), the Kd was 1 to 100 µM.
The like results for `CN1CCCn2nc(C(=O)Nc3nc4ccc(NS(=O)(=O)C5CCNC5)cc4s3)cc2C1` (centres unmarked) [U128] were, in that order, more than 100 µM and 1 to 100 µM.
In the case of `C=CC(=O)N1CCC(C(=O)Nc2nc3ccc(NS(=O)(=O)c4cccs4)cc3s2)C1` (centres unmarked) [U129], at USP7, the IC50 was more than 100 µM. The Kd on USP7 CD + UBL 1-5 (setting [1]) lay in the range of 1 to 100 µM.
For `CN1CCCn2nc(C(=O)Nc3nc4ccc(NS(=O)(=O)c5cc6ccccn6n5)cc4s3)cc2C1` [U130], in that order: more than 100 µM and 1 to 100 µM.
For `C[C@H](CC(=O)N1CCC(O)(Cn2cnc3c(-c4ccc(CNC(=O)CCCCNC(=O)OC(C)(C)C)cc4)n(C)nc3c2=O)CC1)c1ccccc1` [U131], the IC50 at USP7 is less than 1 µM. The Kd at USP7 CD + UBL 1-5 (setting [2]) was less than 1 µM.
As to `C[C@H](CC(=O)N1CCC(O)(Cn2cnc3c(-c4ccc(CNC(=O)CCCCCCNC(=O)OC(C)(C)C)cc4)n(C)nc3c2=O)CC1)c1ccccc1` [U132], the IC50 at USP7 is less than 1 µM. Also, the Kd at USP7 CD + UBL 1-5 (setting [2]) was less than 1 µM.
As to `C[C@H](CC(=O)N1CCC(O)(Cn2cnc3c(-c4ccc(CNC(=O)CCCCCCCNC(=O)OC(C)(C)C)cc4)n(C)nc3c2=O)CC1)c1ccccc1` [U133], the IC50 at USP7 was less than 1 µM. In addition, on USP7 CD + UBL 1-5 (setting [2]), the Kd was less than 1 µM.
For the molecule `C[C@H](CC(=O)N1CCC(O)(Cn2cnc3c(-c4ccc(CNC(=O)CCNC(=O)OC(C)(C)C)cc4)n(C)nc3c2=O)CC1)c1ccccc1` [U134], the IC50 at USP7 was less than 1 µM. In addition, the Kd at USP7 CD + UBL 1-5 (setting [2]) is less than 1 µM.
